The numbers were not newly measured in paper PMC6631257, which cites them from elsewhere.

The series deals with CYP2D6.
As for `COc1ccc([C@@H]2Sc3ccccc3N(CCN(C)C)C(=O)[C@@H]2OC(C)=O)cc1` [diltiazem], the CYP2D6 inhibitor strength entry is reported as “weak inhibitor”.

`CNCCC(Oc1ccc(C(F)(F)F)cc1)c1ccccc1` (stereo not drawn) [fluoxetine]: the CYP2D6 inhibitor strength entry is on record as “strong”.

For `Fc1ccc([C@@H]2CCNC[C@H]2COc2ccc3c(c2)OCO3)cc1` [paroxetine], the CYP2D6 inhibitor strength result is listed as “strong”.
